# Results reported in patent US10220040B2, “Compounds, compositions and methods useful for cholesterol mobilization” (Cerenis Therapeutics Holding SA, priority 2010, dated 2019).
# What was measured:
# Type in all cases: in vivo
# [1] = test system: C57Bl6 mice; experiment: Bile acids physiology after IV injection in mice; settings: intravenously 10 nmol/kg, after 4 h; effect slightly higher than with Cangrelor
# Protocol: FIG. 5A-B: Single-dose effect of the illustrative compounds of the invention on bile acids secretion after IV injection. Mice were fasted for 2 hours and then injected in the caudal vein with the selected molecules (10 nmol/kg) in PBS solution (100 μl). 4 hours later the bile content was analyzed. FIG. 5A. Data are expressed as the concentration of bile acids. FIG. 5B. Data are expressed as the pool of bile acids per mouse (*p<0.05, **p<0.005, ***p<0.0001). Group of animals n=5.
# Bile acids are derived from cholesterol and their synthesis is the predominant pathway for catabolism of cholesterol. The HDL uptake by the liver is directly connected with the bile acids secretion and the bile cholesterol clearance. […] An increase of bile acids concentration as well as of the bile volume was observed. All the compounds responded as well as or even better than the control compound (Reference Compound).
# Bile acids were diluted in PBS (1:5000) and the concentration was measured according to the manufacturer protocol with slight modifications. Concentrations of bile acids in the standard curve were varied from […] and the enzymatic reaction was performed for 20 minutes. 4 μl of 1:5000 bile dilution was used for concentration determination.
# [2] = test system: mice; experiment: Bile acids physiology after one week daily oral treatment; settings: oral gavage once daily for a week (0.03 mg/kg)
# Protocol: FIG. 13A-B: Single-dose effect of Compound IIa on bile acids secretion after one week treatment. Mice were treated daily with Compound IIa (0.03 mg/kg) by oral gavage. On the day of sacrifice, the mice were fasted for 3 hours followed by an oral gavage (same concentration). 4 hours later the bile content was analyzed. FIG. 13A: data are expressed as the concentration of bile acids. FIG. 13B: data are expressed as the pool of bile acids per mouse weight (*p<0.05). Group of animals n=10.
# In the previous experiments, illustrative compounds of the invention were administrated once and the impact on bile physiology was measured after 6 hours. Compound IIa was administrated by oral gavage once daily for a week to allow observation of the consequences on bile physiology of a longer treatment. On the day of sacrifice, the conditions were similar to the dose response experiments. The net impact of Compound IIa on the bile secretion was observed.
# [3] = test system: apoE −/− mice; experiment: ApoE−/− mice flow cessation model (ligated carotid, Western diet)
# Text: FIG. 17A-J: Dose-response effect of P2Y13 agonist on atherosclerotic plaque progression in ApoE^−/− mice. ApoE^−/− mice (n=7) were ligated on the upper part of the left carotids. On the day of the surgery the animals were placed on a Western diet and given an oral gavage of vehicle or increasing doses of Compound IIa. Ligated carotids were lipid extracted in 2:1 chloroform/methanol. FIG. 17A: the concentrations in unesterified cholesterol (dark bars) and total cholesterol (superimposed gray bars) were measured by HPLC. FIG. 17E and FIG. 17H: hematoxylin eosin staining of longitudinal sections of ApoE^−/− mice carotids. FIG. 17F and FIG. 17I: Oil Red O staining of longitudinal sections of ApoE^−/− mice carotids. FIG. 17G and FIG. 17J: CD-68 antibody staining of longitudinal sections of ApoE^−/− mice carotids. FIG. 17B: quantification of the intima/media ratio (n=10). FIG. 17C: Oil Red O positive staining quantification (n=10). FIG. 17D: CD68 antibody staining quantification (n=10). The mice were dosed for 2 weeks with vehicle (FIG. 17E, FIG. 17F and FIG. 17G) or Compound IIa at 100 μg/kg (FIG. 17H, FIG. 17I and FIG. 17J).
# ApoE^−/− mice “flow cessation model”: Left carotid of apoE^−/− mice were ligatured and placed on Western diet. These mice were given Compound IIa once a day at 100 μg/kg (0.5% CMC, 0.2% Tween80) for 2 weeks.
# The left carotid fixed in formalin was embedded in OCT and frozen at −20° C. Four step frozen sections of 50 μm separated one from the other were processed and stained with Oil red O (ORO). Macrophages were detected using primary rat monoclonal anti CD-68 antibody (Abcam).
# The effect of the stimulation of the P2Y13r pathway by the agonists on the atherosclerotic plaque lesions in apoE −/− mice that are very susceptible to develop atherosclerosis on a short term Western (i.e. high-cholesterol) diet was investigated. […] The quantification of plaque components by histo-pathological analysis of the treated carotids with hematoxylin-eosin (FIG. 17B, E, H), oil-red O staining (FIG. 17C, F, I) and with CD68 antibody (specific of the macrophages), (FIG. 17D, G, J) further confirmed this observation.
smiles,measurement,setting,value
"CN(C)c1ncc(CN2CCC(c3cc(O)nc(N4CCOCC4)n3)CC2)cn1 [Compound IIa, 6-[1-(2-Dimethylaminopyrimidin-5-ylmethyl)-piperidin-4-yl]-2-morpholin-4-yl-pyrimidin-4-ol]",bile acids (BA) and free cholesterol secretion into bile,[1],increase
same,volume of the individual bile compared to vehicle treatment,[2],significant increase
same,cholesterol deposit in non-inflammatory right carotids,"[3]; 100 μg/kg, vehicle 18.2+/−3.6",7.5+/−3.4 nmole/mg of tissue
same,progression of the atherosclerosis lesions (lesion cholesterol content) compared to control animals,"[3]; oral dosing for 2 weeks along with high-cholesterol diet, ligated carotid",dose-dependent inhibition
same,inhibition of the atherosclerosis progression in mice,[3]; summary statement,dramatic effect
same,lipid content of the carotids (staining),"[3]; treated animals, 2 weeks",decrease
